Source: EP0092073A1, “Magnesium salt of chenodeoxycholic acid and ursodeoxycholic acid, the process for its preparation, and therapeutic compositions which contain it as active principle” (SCHWARZ ITALIA S.p.A., priority 1982, dated 1983)
Read-outs that look alike come from different tables or passages of the source.

Legend:
rat = assay: Acute lethality and toxicity, oral administration (gastric probe); type: in vivo; set-up: key to Toxic symptomatology Type: NN = no symptomatology; D = depression; settings: oral
Procedure: (§1) Unless otherwise specified, the research was carried out using: a) Mg-UCD capsules as such; b) the powdered contents of Mg-UCD capsules; CDCA (chenodeoxycholic acid) and UDCA (ursodeoxycholic acid) as pure substance which in all cases was partly dissolved and partly suspended under warm conditions (T = 30°C) in 10% gum arabic mucilage (so as to administer 10-40 ml of liquid per kg orally). In certain cases, namely in the experiments involving parenteral administration, the active principle of Mg-UCD, the chenodeoxycholic acid and ursodeoxycholic acid were dissolved in distilled water of slightly alkaline pH (5-10 ml/kg).
(§2) The generally acute lethality, toxicity and tolerability were determined by oral administration of the Mg-UCD (by gastric probe) in the Mus musculus, rat and dog. Animals of both sexes were used, none of which were pregnant. They were fasted for about 12 hours before treatment (but allowing them free access to water). The investigations were carried out using the Mg-UCD in powder form. Comparative investigations were carried out on the rat and Mus musculus using the active principle by endoperitoneal administration, and chenodeoxycholic acid and ursodeoxycholic acid by oral administration (using a gastric probe). Each dose was administered to 20 rats or Mus musculus (10 male and 10 female) and to eight dogs (4 male and 4 female). The animals were observed attentively during the 7 days following administration, and any lethality, toxic symptoms, disturbances, functional variations determinable with the eye, behaviour etc. were noted.
(§3) The LD50 was determined 7 days after administration using the probit method.

[1] = as above; type: in vivo, Mus musculus; set-up: key to Toxic symptomatology Type: NN = no symptomatology; D = depression; settings: in vivo, po; for mortality at 24 h / mortality at 168 h: oral; for mortality at 24 h: read-out: % mortality at following times after administration 24 h; for mortality at 168 h: read-out: % mortality at following times after administration 7 days; for LD50 at 168 h: probit method, read-out: LD50 (mg/kg with reliability limits) 7 days after treatment
Procedure: as §1, §2, §3

Mus musculus = assay: as above; type: in vivo; set-up: key to Toxic symptomatology Type: NN = no symptomatology; D = depression; settings: oral
Procedure: as §1, §2, §3

hampsters [2] = assay: Action on the formation of cholesterol calculi in the gall-bladder (cholesterol-enriched diet, 80 days); type: in vivo; settings: female hampsters; for % animals with calculi / % animals with crystals: cholesterol-enriched diet
Procedure: (§4) The investigations were carried out on hampsters (of female sex, but excluding those in a state of pregnancy) having an initial weight of 75-90 g. They were treated for 80 days with oral administration (by gastric probe) of MG-UCD (10-20 mg/kg/day), chenodeoxycholic acid (10-20 mg/kg/day) or ursodeoxycholic acid (10-20 mg/kg/day) (Tables 4 and 5). The animals were maintained for 80 consecutive days on a Nossan feed diet for rats, enriched with cholesterol (2 mg/g of food).
(§5) Each experimental group consisted of 10 units. After 80 days, the animals were narcotised with ethyl ether, and the bile was withdrawn, together with the calculi and crystals from the gall-bladder as described by Pearlman and coll. in Gastroenterology 77, 634 (1979).

patients = assay: Controlled study in comparison with the free acids; tolerability in patients; type: in vivo; settings: patients
hampsters [3] = assay: Bile lipid and bile acid contents of the bile (cholesterol-enriched diet, 80 days); type: in vivo
Procedure: as §4, §5
The bile acid, phospholipid, cholesterol, cholic acid, chenodeoxycholic acid, ursodeoxycholic acid, DCA (deoxycholic acid) and LCA (lithocholic acid) contents were evaluated in the bile by the methods described by Pearlman and coll. (see above).

[4] = mouse, 2000 mg/kg, M. musculus F, 2000 mg/kg
[5] = mouse, 2000 mg/kg, M. musculus M, 2000 mg/kg
[6] = mouse, 4000 mg/kg, M. musculus F, 4000 mg/kg
[7] = mouse, 4000 mg/kg, M. musculus M, 4000 mg/kg
[8] = mouse, 8000 mg/kg, M. musculus F, 8000 mg/kg
[9] = mouse, 8000 mg/kg, M. musculus M, 8000 mg/kg
[10] = rat, 2000 mg/kg, Rat F, 2000 mg/kg
[11] = rat, 2000 mg/kg, Rat M, 2000 mg/kg
[12] = rat, 4000 mg/kg, Rat F, 4000 mg/kg
[13] = rat, 4000 mg/kg, Rat M, 4000 mg/kg
[14] = rat, 8000 mg/kg, Rat F, 8000 mg/kg
[15] = rat, 8000 mg/kg, Rat M, 8000 mg/kg

Q: What does the source list for `C[C@H](CCC(=O)O)[C@H]1CC[C@H]2[C@@H]3[C@H](O)C[C@@H]4C[C@H](O)CC[C@]4(C)[C@H]3CC[C@]12C` [Chenodeoxycholic acid, 17β-(1-methyl-3-carboxypropyl)-ethiocholane-3α, 7α-diol]?
A: Toxic symptomatology Latency (rat; Rat F, 2000 mg/kg): 5-10 min; Toxic symptomatology Type (rat; Rat F, 2000 mg/kg): D; Toxic symptomatology Latency (rat; Rat F, 4000 mg/kg): 5-10 min; Toxic symptomatology Type (rat; Rat F, 4000 mg/kg): D; Toxic symptomatology Latency (rat; Rat F, 8000 mg/kg): 5-10 min; Toxic symptomatology Type (rat; Rat F, 8000 mg/kg): D; Toxic symptomatology Latency (rat; Rat M, 2000 mg/kg): 5-10 min; Toxic symptomatology Type (rat; Rat M, 2000 mg/kg): D; Toxic symptomatology Latency (rat; Rat M, 4000 mg/kg): 5-10 min; Toxic symptomatology Type (rat; Rat M, 4000 mg/kg): D; Toxic symptomatology Latency (rat; Rat M, 8000 mg/kg): 5-10 min; Toxic symptomatology Type (rat; Rat M, 8000 mg/kg): D; mortality at 24 h [1, 4]: 0%; mortality at 168 h [1, 4]: 0%; mortality at 24 h [1, 5]: 0%; mortality at 168 h [1, 5]: 0%; mortality at 24 h [1, 6]: 30%; mortality at 168 h [1, 6]: 30%; mortality at 24 h [1, 7]: 30%; mortality at 168 h [1, 7]: 30%; mortality at 24 h [1, 8]: 80%; mortality at 168 h [1, 8]: 80%; mortality at 24 h [1, 9]: 80%; mortality at 168 h [1, 9]: 80%; LD50 at 168 h ([1]; mouse, M. musculus F): 5280 mg/kg; LD50 at 168 h ([1]; mouse, M. musculus M): 5280 mg/kg; mortality at 24 h [1, 10]: 0%; mortality at 168 h [1, 10]: 0%; mortality at 24 h [1, 11]: 0%; mortality at 168 h [1, 11]: 0%; mortality at 24 h [1, 12]: 30%; mortality at 168 h [1, 12]: 30%; mortality at 24 h [1, 13]: 40%; mortality at 168 h [1, 13]: 40%; mortality at 24 h [1, 14]: 90%; mortality at 168 h [1, 14]: 90%; mortality at 24 h [1, 15]: 80%; mortality at 168 h [1, 15]: 80%; LD50 at 168 h ([1]; rat, Rat F): 4890 mg/kg; LD50 at 168 h ([1]; rat, Rat M): 4010 mg/kg; Toxic symptomatology Latency (Mus musculus; M. musculus F, 2000 mg/kg): 5-10 min; Toxic symptomatology Type (Mus musculus; M. musculus F, 2000 mg/kg): D; Toxic symptomatology Latency (Mus musculus; M. musculus F, 4000 mg/kg): 5-10 min; Toxic symptomatology Type (Mus musculus; M. musculus F, 4000 mg/kg): D; Toxic symptomatology Latency (Mus musculus; M. musculus F, 8000 mg/kg): 5-10 min; Toxic symptomatology Type (Mus musculus; M. musculus F, 8000 mg/kg): D; Toxic symptomatology Latency (Mus musculus; M. musculus M, 2000 mg/kg): 5-10 min; Toxic symptomatology Type (Mus musculus; M. musculus M, 2000 mg/kg): D; Toxic symptomatology Latency (Mus musculus; M. musculus M, 4000 mg/kg): 5-10 min; Toxic symptomatology Type (Mus musculus; M. musculus M, 4000 mg/kg): D; Toxic symptomatology Latency (Mus musculus; M. musculus M, 8000 mg/kg): 5-10 min; Toxic symptomatology Type (Mus musculus; M. musculus M, 8000 mg/kg): D; % animals with calculi (hampsters [2]; 10 mg/kg/day oral for 80 days): 50%; % animals with crystals (hampsters [2]; 10 mg/kg/day oral for 80 days): 30%; % animals with calculi (hampsters [2]; 20 mg/kg/day oral for 80 days): 0%; % animals with crystals (hampsters [2]; 20 mg/kg/day oral for 80 days): 0%; Body weight (g ± s.e.) after following days 80 (hampsters [2]; day 80, oral, 10 mg/kg/day): 148 ± 9 g; side effects (patients): diarrhoea, and, in certain cases, transaminase increase; Bile acids (expressed as molar % ± s.e.) Cheno-deoxycholic acid (hampsters [3]; 10 mg/kg/day oral for 80 days): 42.1 ± 3.6 molar %; Bile acids (expressed as molar % ± s.e.) Cholic acid (hampsters [3]; 10 mg/kg/day oral for 80 days): 29.6 ± 2.6 molar %; Bile acids (expressed as molar % ± s.e.) DCA (hampsters [3]; 10 mg/kg/day oral for 80 days): 12.7 ± 0.6 molar %; Bile acids (expressed as molar % ± s.e.) LCA (hampsters [3]; 10 mg/kg/day oral for 80 days): 3.2 ± 0.1 molar %; Bile acids (expressed as molar % ± s.e.) Urso-deoxycholic acid (hampsters [3]; 10 mg/kg/day oral for 80 days): 6.6 ± 0.4 molar %; Bile lipids (expressed as molar % ± s.e.) Bile acids (hampsters [3]; 10 mg/kg/day oral for 80 days): 79.5 ± 5.6 molar %; Bile lipids (expressed as molar % ± s.e.) Cholesterol (hampsters [3]; 10 mg/kg/day oral for 80 days): 7.2 ± 0.2 molar %; Bile lipids (expressed as molar % ± s.e.) Phospho-lipids (hampsters [3]; 10 mg/kg/day oral for 80 days): 16.0 ± 1.8 molar %; Bile acids (expressed as molar % ± s.e.) Cheno-deoxycholic acid (hampsters [3]; 20 mg/kg/day oral for 80 days): 66.0 ± 4.7 molar %; Bile acids (expressed as molar % ± s.e.) Cholic acid (hampsters [3]; 20 mg/kg/day oral for 80 days): 18.7 ± 2.1 molar %; Bile acids (expressed as molar % ± s.e.) DCA (hampsters [3]; 20 mg/kg/day oral for 80 days): 10.4 ± 0.2 molar %; Bile acids (expressed as molar % ± s.e.) LCA (hampsters [3]; 20 mg/kg/day oral for 80 days): 3.4 ± 0.3 molar %; Bile acids (expressed as molar % ± s.e.) Urso-deoxycholic acid (hampsters [3]; 20 mg/kg/day oral for 80 days): 7.8 ± 0.3 molar %; Bile lipids (expressed as molar % ± s.e.) Bile acids (hampsters [3]; 20 mg/kg/day oral for 80 days): 80.2 ± 3.8 molar %; Bile lipids (expressed as molar % ± s.e.) Cholesterol (hampsters [3]; 20 mg/kg/day oral for 80 days): 5.9 ± 0.3 molar %; Bile lipids (expressed as molar % ± s.e.) Phospho-lipids (hampsters [3]; 20 mg/kg/day oral for 80 days): 15.8 ± 1.3 molar %
